Structures can show the parent of a compound that is named as a salt. Active and inactive are the calls of the source.
Columns and labels:
[1] = molecular target: Cytochrome P450 2C19 (Homo sapiens, UniProt P33261); assay: Cytochrome panel assay with activity outcomes. Panel member name: p450-cyp2c19 Compounds with AC50 equal or less than 10 uM are considered active; type: functional
[2] = molecular target: Cytochrome P450 2C9 (Homo sapiens, UniProt P11712)
[3] = molecular target: Cytochrome P450 3A4 (Homo sapiens, UniProt P08684);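 note: CYP3A4 tested as one member of a cytochrome P450 panel screen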
[4] = A cytotoxicity screen of small molecule inhibitors of the PhoP region in Salmonella typhi identified in the primary screen. [Related pubchem assays: 1850, 1864, 1985 ]; type: functional
[5] = HEK-293T viability loss after treatment – luminescence, T-cell screen hits, cytotoxicity control for TCR NF-kB inhibitor project, dose response (AID 489026); type: functional, cell-based;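 note: cells exposed to compound about 14 hours before the viability readout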
[6] = molecular target: T1, Cytochrome P450 1A2 (Homo sapiens, UniProt P05177)
T1 sequence (P05177 whole entry): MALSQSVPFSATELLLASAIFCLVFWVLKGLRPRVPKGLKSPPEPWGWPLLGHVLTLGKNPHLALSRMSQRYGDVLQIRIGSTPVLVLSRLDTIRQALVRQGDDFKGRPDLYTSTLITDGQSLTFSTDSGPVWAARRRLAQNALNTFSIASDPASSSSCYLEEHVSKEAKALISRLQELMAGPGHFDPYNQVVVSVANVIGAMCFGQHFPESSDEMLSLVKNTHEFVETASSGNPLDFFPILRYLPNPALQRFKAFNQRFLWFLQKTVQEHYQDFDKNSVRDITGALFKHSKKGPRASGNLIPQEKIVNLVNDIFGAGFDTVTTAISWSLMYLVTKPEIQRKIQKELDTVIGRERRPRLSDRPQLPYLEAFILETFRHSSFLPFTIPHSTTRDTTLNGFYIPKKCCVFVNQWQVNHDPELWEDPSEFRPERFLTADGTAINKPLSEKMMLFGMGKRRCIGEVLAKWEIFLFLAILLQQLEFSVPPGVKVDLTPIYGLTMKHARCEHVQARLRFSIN

[7] = Luminescence Cell-Based Dose Confirmation HTS to Identify Activators of 5'UTR Stem-Loop Driven Alpha-Synuclein mRNA Translation in H4 Neuroglioblastoma Cells. [Related pubchem assays: 1829 (Project Summary), 1814 (Primary HTS)]; type: functional
[8] = Luminescence Cell-Based Dose Response HTS to Identify Activators of Luciferase Translation or Activity in H4 […] Cells. [Related pubchem assays: 1829 (Project Summary), 1814 (Primary HTS)]; type: functional
[9] = test system: H4; assay: Luminescence Cell-Based Dose Response HTS to Identify Activators of 5'UTR Stem-Loop Driven Prion Protein mRNA Translation in H4 Neuroglioblastoma Cells. [Related pubchem assays: 1829 (Project Summary), 1814 (Primary HTS)]; type: functional; details: Homo sapiens
[10] = molecular target: T2, Streptokinase A (Streptococcus pyogenes serotype M1, UniProt P10520); assay: viability-normalized secreted streptokinase activity reduction – plasminogen activation absorbance, OD405, dose response (AID 1914); type: functional, Streptococcus pyogenes M1 GAS;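 note: secreted streptokinase activity via plasminogen activation per viability signal from cell pellet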
T2 sequence (P10520 whole entry): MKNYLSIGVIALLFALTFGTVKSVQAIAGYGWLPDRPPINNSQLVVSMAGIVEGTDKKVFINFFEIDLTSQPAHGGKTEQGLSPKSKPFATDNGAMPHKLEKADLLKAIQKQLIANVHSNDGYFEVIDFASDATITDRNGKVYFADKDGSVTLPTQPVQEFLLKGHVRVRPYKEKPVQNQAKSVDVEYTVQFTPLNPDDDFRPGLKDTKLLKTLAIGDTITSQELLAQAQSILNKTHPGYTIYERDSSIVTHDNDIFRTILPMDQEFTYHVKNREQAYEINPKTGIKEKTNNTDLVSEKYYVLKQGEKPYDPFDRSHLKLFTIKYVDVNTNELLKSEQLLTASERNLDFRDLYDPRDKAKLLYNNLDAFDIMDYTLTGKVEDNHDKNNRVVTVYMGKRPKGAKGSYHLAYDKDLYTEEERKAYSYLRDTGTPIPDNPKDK

[11] = test system: Streptococcus sp. 'group A'; assay: Streptococcus pyogenes SK(-)GAS viability under kanamycin – luminescence, BacTiterGlo, confirmation, counter-screen for streptokinase expression inhibitor project, dose response (AID 1900); type: functional, organism-based
[12] = molecular target: T3, Carboxy-terminal domain RNA polymerase II polypeptide A small phosphatase 1 (Homo sapiens, UniProt Q9GZU7); assay: CTDSP1 inhibitors, concentration-response, biochemical, absorbance readout, ultra-high-throughput screen actives (AID 540297); type: functional
T3 sequence (Q9GZU7 whole entry): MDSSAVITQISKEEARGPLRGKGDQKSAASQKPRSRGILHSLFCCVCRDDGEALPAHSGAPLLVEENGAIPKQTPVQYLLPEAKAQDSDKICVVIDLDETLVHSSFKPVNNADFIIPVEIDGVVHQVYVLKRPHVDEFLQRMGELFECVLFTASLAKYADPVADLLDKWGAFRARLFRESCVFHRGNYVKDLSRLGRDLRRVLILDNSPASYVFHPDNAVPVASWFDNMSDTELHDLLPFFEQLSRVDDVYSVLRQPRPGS

[13] = test system: Streptococcus; assay: GAS UMAA2166 growth inhibition – luminescence, BacTiterGlo, counter-screen for streptokinase expression inhibitor project, dose response (AID 1915); type: functional, organism-based;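 note: potency for reduction of bacterial viability or growth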
[14] = test system: BJ; assay: growth inhibition of engineered Ras-driven BJ cells – cell-based, alamar blue fluorescence, cherrypicked samples, dose response (AID 2631); type: functional; details: Homo sapiens;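 note: confirmatory dose-response assay in RAS-dependent BJ fibroblasts engineered with TERT, LT and ST, with cytotoxicity read by fluorescence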
[15] = DRD fibroblast viability loss – cell-based, non-viral oncogenic, luminescence, dose response (AID 1934); type: functional; details: Homo sapiens
[16] = test system: BJ; assay: cells; type: functional, cell-based; details: Homo sapiens
[17] = non-specific 3'UTR reporter inhibition in Clone20-Shn3RL – cell-based, Renilla luciferase, cherry-picked, counter-screen for Shn3 inhibitor project, dose response (AID 624133); type: functional
[18] = reduction of Shn3 3'UTR-driven luciferase in osteoblasts – cell-based, Clone20 osteoblasts, firefly luciferase, cherry-picked, dose response (AID 624132); type: functional;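 note: firefly luciferase luminescence from reporter carrying the Shn3 3'UTR in osteoblasts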
[19] = test system: BJ; assay: BJ-TERT fibroblast viability loss – cell-based, RAS-independent, luminescence, dose response (AID 1933); type: functional; details: Homo sapiens
[20] = test system: BJ; assay: BJ-TERT-LT-ST fibroblast viability loss – cell-based, RAS-independent, luminescence, dose response (AID 1935); type: functional; details: Homo sapiens;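 note: BJ fibroblasts immortalized with TERT plus LT and ST oncogenes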
[21] = molecular target: T4, Heat shock factor protein 1 (Mus musculus, UniProt P38532); assay: decrease of HSF1-responsive luciferase luminescence – cell-based, NIH3T3, dose retest, confirmation (AID 2382); type: functional;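 note: NIH3T3 fibroblasts with HSF1-driven luciferase reporter stressed by proteasome inhibitor MG132; luminescence from HSF1-driven luciferase expression after 8 hours of MG132 stress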
T4 sequence (P38532 whole entry): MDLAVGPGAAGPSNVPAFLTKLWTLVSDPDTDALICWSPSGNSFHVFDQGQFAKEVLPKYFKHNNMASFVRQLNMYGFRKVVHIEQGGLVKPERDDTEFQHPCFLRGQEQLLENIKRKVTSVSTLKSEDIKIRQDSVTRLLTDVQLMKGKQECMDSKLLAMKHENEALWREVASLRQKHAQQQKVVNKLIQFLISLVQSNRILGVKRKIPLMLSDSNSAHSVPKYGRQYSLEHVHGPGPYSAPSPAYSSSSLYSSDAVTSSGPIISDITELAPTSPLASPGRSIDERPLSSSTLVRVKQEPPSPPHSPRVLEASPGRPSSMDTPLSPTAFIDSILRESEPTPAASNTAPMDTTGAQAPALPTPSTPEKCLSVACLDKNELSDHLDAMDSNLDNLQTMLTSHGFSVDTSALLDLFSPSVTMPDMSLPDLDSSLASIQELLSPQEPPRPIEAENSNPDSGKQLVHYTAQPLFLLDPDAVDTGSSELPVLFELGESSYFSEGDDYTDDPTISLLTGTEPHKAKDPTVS

[22] = molecular target: Cytochrome P450 2D6 (Homo sapiens, UniProt P10635);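 note: CYP2D6 member of a cytochrome P450 panel assay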
[23] = Luminescence Cell-Based Dose Response HTS to Identify Inhibitors of 5'UTR Stem-Loop Driven Prion Protein mRNA Translation in H4 Neuroglioblastoma Cells. [Related pubchem assays: 1827 (Project Summary), 1813 (Primary HTS)]; type: functional
[24] = alpha-synuclein stem-loop luciferase translation blockers – H4 neuroglioma cells, luminescence, confirmation (AID 1988); type: functional, cell-based
[25] = luciferase reporter signal suppression in cells – H4 neuroglioma cells, luminescence, dose response (AID 1990); type: functional, cell-based
[26] = cells; type: functional
[27] = microbe, parasite or virus in culture; type: functional; details: Mycobacterium tuberculosis
[28] = THP-1 cell cytotoxicity, dose response, cytotoxicity control for non-replicating M. tuberculosis project (AID 489025); type: functional

Sequence of Cytochrome P450 2C9 (P11712 whole entry): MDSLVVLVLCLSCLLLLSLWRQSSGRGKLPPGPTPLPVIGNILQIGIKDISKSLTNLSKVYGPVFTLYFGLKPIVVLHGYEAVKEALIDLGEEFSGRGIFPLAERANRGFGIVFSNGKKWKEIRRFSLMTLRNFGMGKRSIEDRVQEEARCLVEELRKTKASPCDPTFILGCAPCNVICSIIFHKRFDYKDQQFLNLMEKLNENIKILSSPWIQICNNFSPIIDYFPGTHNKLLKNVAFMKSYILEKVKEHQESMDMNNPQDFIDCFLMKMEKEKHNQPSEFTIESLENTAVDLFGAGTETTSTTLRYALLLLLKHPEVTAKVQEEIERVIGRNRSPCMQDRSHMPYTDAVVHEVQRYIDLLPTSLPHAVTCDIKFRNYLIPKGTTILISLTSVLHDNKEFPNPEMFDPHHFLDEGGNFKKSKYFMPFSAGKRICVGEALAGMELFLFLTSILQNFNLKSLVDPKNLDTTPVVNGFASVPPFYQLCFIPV
Sequence of Cytochrome P450 3A4 (P08684 whole entry): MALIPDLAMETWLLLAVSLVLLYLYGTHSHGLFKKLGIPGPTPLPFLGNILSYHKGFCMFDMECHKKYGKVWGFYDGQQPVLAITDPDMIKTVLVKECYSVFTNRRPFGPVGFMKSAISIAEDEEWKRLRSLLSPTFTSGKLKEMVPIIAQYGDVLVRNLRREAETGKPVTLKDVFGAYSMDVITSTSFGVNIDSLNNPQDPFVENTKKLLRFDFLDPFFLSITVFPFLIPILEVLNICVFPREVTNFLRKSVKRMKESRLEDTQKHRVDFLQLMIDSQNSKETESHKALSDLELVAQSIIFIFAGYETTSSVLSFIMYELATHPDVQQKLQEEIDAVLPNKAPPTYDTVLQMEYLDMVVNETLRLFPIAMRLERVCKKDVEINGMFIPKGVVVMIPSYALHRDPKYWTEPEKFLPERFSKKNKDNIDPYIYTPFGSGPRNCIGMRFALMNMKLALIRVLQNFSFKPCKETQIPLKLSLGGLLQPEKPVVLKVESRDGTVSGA
Sequence of Cytochrome P450 2C19 (P33261 whole entry): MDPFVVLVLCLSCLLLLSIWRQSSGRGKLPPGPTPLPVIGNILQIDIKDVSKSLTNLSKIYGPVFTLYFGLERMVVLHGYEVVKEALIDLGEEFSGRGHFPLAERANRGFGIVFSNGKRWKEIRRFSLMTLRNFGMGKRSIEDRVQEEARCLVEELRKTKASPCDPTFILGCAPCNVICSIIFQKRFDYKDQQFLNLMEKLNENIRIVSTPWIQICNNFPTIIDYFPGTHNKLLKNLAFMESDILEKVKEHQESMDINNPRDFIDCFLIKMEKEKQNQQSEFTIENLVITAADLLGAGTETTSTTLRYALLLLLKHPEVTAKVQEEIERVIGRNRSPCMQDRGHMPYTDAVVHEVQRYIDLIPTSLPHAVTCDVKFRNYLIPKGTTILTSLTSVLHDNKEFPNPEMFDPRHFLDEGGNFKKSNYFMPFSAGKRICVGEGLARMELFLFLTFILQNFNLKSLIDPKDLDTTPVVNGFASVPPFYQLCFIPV
Sequence of Cytochrome P450 2D6 (P10635 whole entry): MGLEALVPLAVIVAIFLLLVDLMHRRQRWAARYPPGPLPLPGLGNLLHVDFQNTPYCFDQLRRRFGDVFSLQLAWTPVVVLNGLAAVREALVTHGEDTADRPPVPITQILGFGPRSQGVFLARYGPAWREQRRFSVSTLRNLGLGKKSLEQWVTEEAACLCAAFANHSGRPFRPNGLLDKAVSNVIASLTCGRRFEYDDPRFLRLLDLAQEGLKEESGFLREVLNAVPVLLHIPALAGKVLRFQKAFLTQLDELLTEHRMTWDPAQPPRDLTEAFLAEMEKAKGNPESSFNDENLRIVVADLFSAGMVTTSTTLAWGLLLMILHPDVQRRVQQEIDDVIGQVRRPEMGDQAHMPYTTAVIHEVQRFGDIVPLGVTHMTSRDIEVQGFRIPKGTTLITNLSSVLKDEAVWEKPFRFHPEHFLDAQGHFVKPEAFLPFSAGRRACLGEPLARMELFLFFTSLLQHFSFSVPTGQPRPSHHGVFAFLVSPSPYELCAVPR

## Cn1nc(C(F)(F)F)c(/C=N/OC(=O)c2ccc(Cl)cc2)c1Cl
[1]
  AC50: 10 µM (inconclusive)
[2]
  AC50: inconclusive

## CS(=O)(=O)c1cnc2c(-c3ccc(F)cc3)cnn2c1N
[3]
  AC50: 28.2 µM (inconclusive)
[4]
  EC50: > 50 µM (active)

## O=C1C2C3C=CC(CC3)C2C(=O)N1/N=C/c1ccc(O)cc1 (stereo not given)
[4]
  EC50: > 50 µM (active)

## COc1ccccc1N1CCN(C(=O)c2ccc(-c3ccc(Cl)cc3)o2)CC1
[5]
  IC50: 72.7 µM (inactive)

## Cc1noc(C)c1COc1cccc(C(=O)OCC(=O)N2CC(=O)Nc3ccccc32)c1
[5]
  IC50: > 80 µM (inactive)

## Fc1ccc(NC(S)=NCc2ccccc2Cl)cc1
[4]
  EC50: > 50 µM (active)

## COc1cc(OC)cc(C(=O)Nc2ccccc2C(=O)N2CCCC2)c1
[6]
  AC50: 14.1 µM (inconclusive)
[7]
  EC50: > 120 µM (not active)
[8]
  EC50: > 120 µM (not active)
[9]
  EC50: > 120 µM (not active)
[2]
  AC50: inconclusive

## COc1ccccc1N1CCN(C[C@@H]2CN3C(=O)N(C)c4ccccc4C3=N2)CC1
[6]
  AC50: 31.6 µM (inconclusive)
[2]
  AC50: inconclusive

## Cc1ccc2[nH]c(O)c(N=NC(=O)c3ccc(NS(=O)(=O)c4cccs4)cc3)c2c1
[10]
  EC50: > 150 µM (not active)
[11]
  EC50: 429 nM (active)
[12]
  IC50: 11.5 µM (active)
[13]
  EC50: 16.3 µM (active)

## NC1CCN(c2nc3c(cc2F)c(=O)c(C(=O)O)cn3-c2ccc(F)cc2F)C1 (stereo not given) [TOSUFLOXACIN TOSYLATE]
[11]
  EC50: 276 nM (active)
[13]
  EC50: 0.999 µM (active)
[4]
  EC50: > 50 µM (active)

## Cc1ccc(N2C(=O)c3cccc4c([N+](=O)[O-])ccc(c34)C2=O)c2cccnc12
[14]
  EC50: 782 nM (active)
[15]
  EC50: 5.37 µM (inconclusive)
[16]
  EC50: 26.5 µM (inconclusive)
[17]
  AC50: 29.5 µM (active)
[18]
  AC50: 5.68 µM (active)
[19]
  EC50: 2.21 µM (inconclusive)
[20]
  EC50: 3.88 µM (inconclusive)

## N#Cc1ccccc1S(=O)(=O)N1CCN(C(=O)c2cc3c(s2)CCC3)CC1
[12]
  IC50: 5.88 µM (active)

## C=C(C)Cn1c(-c2ccc(OC)cc2)nc2ccccc21
[4]
  EC50: > 50 µM (active)

## c1ccc(-c2nc3ccccc3[nH]2)cc1
[21]
  EC50: > 195 µM (not active)
[4]
  EC50: > 50 µM (active)

## CC1CCCCC1N(C)C1CCN(C(=O)CNC(=O)/C=C/c2cccc(Cl)c2)CC1 (stereo not given)
[14]
  EC50: 1510 nM (active)
[15]
  EC50: 3.46 µM (active)
[16]
  EC50: 2.79 µM (active)
[19]
  EC50: 2.72 µM (active)
[20]
  EC50: 2.63 µM (inconclusive)

## Cc1ccc(C(=O)Nc2cc3ccccc3oc2=O)cc1
[15]
  EC50: 6.97 µM (active)
[16]
  EC50: 9.35 µM (active)
[5]
  IC50: > 80 µM (inactive)
[21]
  EC50: 0.21 µM (active)
[19]
  EC50: 18.4 µM (active)
[20]
  EC50: 24 µM (active)

## Cc1ccc(SCc2ccc(C(=O)Nc3cc([N+](=O)[O-])ccc3C)cc2)cc1
[3]
  AC50: 8.91 µM (inconclusive)
[2]
  AC50: inconclusive
[22]
  AC50: 3.16 µM (inconclusive)

## CCO[C@@H]1OC(C(=O)NCc2nc3ccccc3[nH]2)=C[C@H](C(C)(C)C)[C@H]1CCCO
[23]
  EC50: 10.5 µM (active)
[24]
  EC50: 297 nM (inconclusive)
[5]
  IC50: > 80 µM (inactive)
[25]
  EC50: > 60 µM (not active)

## Cn1cnc(C(=O)N2CCc3ccccc3C2)c1C(=O)N1CCc2ccccc2C1
[12]
  IC50: 4.36 µM (active)

## Cc1nnc(SCC(=O)Nc2nsc(-c3ccc(Cl)cc3)n2)s1
[12]
  IC50: 15.2 µM (active)

## Cc1ccc(S(=O)(=O)/N=C(\CCl)N2CCOCC2)cc1
[26]
  IC50: 10.8 µM (active)
[27]
  CC50: > 40 µM (active)
[28]
  CC50: 30.1 µM (active)

## COc1ccc(/C=C/C(=O)Nc2cc(C(F)(F)F)ccc2Cl)cc1
[1]
  AC50: 0.00631 µM (inconclusive)
[3]
  AC50: 10 µM (inconclusive)
[2]
  AC50: inconclusive

## COc1ccc(OC)c(NC(=O)CSc2sc3c(O)cc(=O)[nH]c3c2C#N)c1
[12]
  IC50: 5.22 µM (active)
